# Experimental data as given in US7141661B2, “Non-steroidal anti-inflammatory drug activated gene with anti-tumorigenic properties” (The United States of America as represented by the …, priority 2000, dated 2006).
# Assays:
# Type in all cases: cell-based, human
# NAG-1 [1] = test: Northern blot analysis of NAG-1 mRNA expression in HCT-116 cells; settings: HCT-116, 100 μM INDO, 48 hr, no serum
# HCT-116 cells = test: Apoptosis by FACS in HCT-116 cells stably transfected with vector, sense or antisense NAG-1; settings: 100 μM, 48 hr
# Source text: (§1) HCT-116 cells were stably transfected with an expression vector containing the full-length NAG-1 coding region in the sense and antisense orientations. The sense cells expressed NAG-1 protein at a level that was 2.0–2.5 fold greater than the vector transfected cells, while the anti-sense cells expressed slightly lower NAG-1 levels compared to vector transfected cells. […] The full-length NAG-1 (sense strand and antisense strand) was cloned into the pCDNA3.1 expression vector and transfected into HCT-116 cells. Each cell was grown under G418 (500 μg/ml) for 2 weeks and treated with either vehicle or INDO (100 μM). After growing for 48 hr, the media was harvested, concentrated, and subjected to Western analysis. Thirty μg of total protein was loaded in each lane, and the arrow indicates the NAG-1 protein band.
# Despite repeated attempts, construction of NAG-1 highly expressing cells which may be linked to high rates of apoptosis were not generated (data not shown). […] This could be due to effects on cell proliferation and/or an increase in cell death. […] The stably transfected cells were then incubated with 100 μM indomethacin for 48 hr and the percentage of cells in apoptosis determined by FACS analysis as described in Example 1. The data shown in FIG. 6 represent mean±S.D. Indomethacin enhanced the percentage of apoptotic cells by approximately 2 fold in the vector-HCT-116 and sense cells.
# NAG-1 [2] = test: Western analysis of NAG-1 in stably transfected HCT-116 cells; settings: antisense HCT-116 cells, 100 μM, 48 hr
# Source text: as §1
# NAG-1 [3] = test: Northern blot NAG-1 induction in U937 leukemia cells; settings: INDO treatment, 24 hr
# Procedure: NSAID-induced apoptosis is not restricted to colorectal cells, as NSAIDs can induce apoptosis in breast, lung, leukemia, and prostate cell lines. To test for the induction of NAG-1 by NSAIDs in different cell lines, A549 lung epithelial cells, MCF-7 mammary cells, PC-3 prostate cancer cells, and U937 leukemia cell lines were treated with several concentrations of INDO and aspirin. Then, as described above, Northern blot analysis was performed. […] Quiescent cells were grown for 24 hr in the presence of indicated NSAIDs. Total RNAs were isolated and subjected to Northern analysis using NAG-1 and β-actin as probes. The blots contained 10 μg of total RNA from INDO- or Aspirin (Asp)-treated cells with indicated doses. “V” indicates total RNAs from vehicle (0.2% DMSO) treated cells. The results shown are representative of those obtained in two experiments.
# NAG-1 [4] = test: Northern blot analysis of NAG-1 mRNA expression in HCT-116 cells
# Procedure: Upon reaching 60–80% confluence in 10 cm plates, the cells were treated at indicated concentrations and times with either different NSAIDs or PPARγ ligands in the absence of serum. Total RNAs were isolated using TRIzol reagent (Life Technologies) according to the manufacturer's protocol. For Northern blot analysis, […] of total RNA was denatured at 55° C. for 15 min and separated in a 1.2% agarose gel containing 2.2 M formaldehyde, and transferred to Hybond-N membrane ([…]). After fixing the membrane by UV, blots were prehybridized in hybridization solution (Rapid-hyb buffer, […]) for 1 hr at 65° C. followed by hybridization with cDNA labeled with [α-^32P]dCTP by random primer extension (DECAprimeII kit, Ambion). The probes used were either full-length NAG-1 fragment or PTGFB clone (generously provided by Dr. Bento-Soar of the University of Iowa). After 4 hr incubation at 65° C., the blots were washed once with 2×SSC/0.1% SDS at RT and twice with 0.1×SSC/0.1% SDS at 65° C. Messenger RNA abundance Was estimated by intensities of the hybridization bands of autoradiographs using Scion Image (Scion). Equivalent loading of RNA samples was confirmed by hybridizing the same blot with a ^32P-labeled b-actin probe which recognizes RNA of approximately 2 kb.
# To determine whether other NSAIDs increased apoptosis and NAG-1 expression, tests were conducted to determine whether variants of NSAIDs induced NAG-1 gene expression and NSAID-induced apoptosis. Aspirin, ibuprofen, indomethacin, and sulindac sulfide were selected since they are known COX inhibitors. […] HCT-116 cells were treated with different NSAIDs (vehicle, 0.2% DMSO; aspirin, 10 mM; ibuprofen, 1 mM; sodium salicylate, 5 mM; sulindac sulfide, 50 μM; sulindac, 40 μM; acetaminophen, 100 μM) for 24 hr in the absence of serum. Northern analysis was performed using NAG-1 and β-actin as probes. Total RNAs were isolated from NSAID-treated HCT-116 cells after 24 hr treatment and Northern blot was performed using NAG-1 cDNA as a probe (data not shown). […] Each of the doses were as follows: aspirin (1, 5, 10 mM); ibuprofen (100, 500, 1000 μM); salicylate (1, 2.5, 5 mM); sulindac sulfide (1, 10, 50 μM); sulindac (10, 20, 40 μM); acetaminophen (10, 50, 100 μM). After 48 hr treatment with NSAIDs in the presence of serum, cells were harvested and assayed as described in FIG. 1C. Apoptosis detected by PI staining was measured by FACS, as known in the art (FIG. 2A; HCT-116 cells were treated with different NSAIDs (vehicle, 0.2% DMSO; Aspirin, 10 mM; Ibuprofen, 1 mM; Sodium Salicylate, 5 mM; Sulindac Sulfide, 50 μM; Sulindac, 40 μM; Acetaminophen, 100 μM) for 24 hr in the absence of serum. Northern analysis was performed using NAG-1 and β-actin as probes. The open bars represent the relative expression of NAG-1 mRNA over the control (vehicle). The hatched bars represent the relative apoptosis ratio over vehicle treatment by PI staining methods. N=3±S.D.).
# In the Table below, HCT-116 cells were treated with different NSAIDs (vehicle, 0.2% DMSO) for 24 hr in the absence of serum. Northern analysis was performed using NAG-1 and β-actin as probes. The data represent relative expression of NAG-1 mRNA over the control (1.0). Each NSAID was tested at 3 different concentrations and maximally effective concentration used for apoptosis determination. Apoptosis ratio by PI staining was measured by FACS. After 48 hr treatment with NSAIDs in the presence of serum, cells were harvested and assayed. The data represent relative apoptosis ratio over vehicle treatment by PI staining methods. TACS™ Annexin V-FITC kit was also used to confirm apoptosis.
smiles,measurement,setting,value
COc1ccc2c(c1)c(CC(=O)O)c(C)n2C(=O)c1ccc(Cl)cc1 [Indomethacin],NAG-1 mRNA expression,NAG-1 [1],further increase
same,Stimulation of apoptosis,HCT-116 cells; antisense HCT-116 cells,did not stimulate apoptosis
same,Enhancement of percentage of apoptotic cells,HCT-116 cells; sense NAG-1 HCT-116 cells,approximately 2 fold
same,Enhancement of percentage of apoptotic cells,HCT-116 cells; vector-HCT-116 cells,approximately 2 fold
same,Expression of NAG-1,NAG-1 [2],did not stimulate apoptosis or increase the expression of NAG-1
same,NAG-1 expression,NAG-1 [3],only a modest increase
same,NAG-1 mRNA expression,"NAG-1 [4]; HCT-116, 100 μM INDO, 24 hr, no serum",significant increase
same,NAG-1 Induction (mRNA) Fold,"NAG-1 [4]; HCT-116, 24 hr in absence of serum, relative NAG-1 mRNA over vehicle control (1.0), tested over the concentration range listed",2.2 Fold
